Our source for the inhibition values is paper PMC6934184, “Selective DNA-PKcs inhibition extends the therapeutic index of localized radiotherapy and chemotherapy” (The Journal of Clinical Investigation, 2019).

This test has as its target T1, TLK1 (Homo sapiens, UniProt Q9UKI8).
T1 construct: purchased Thermo Fisher Scientific (Life Technologies) SelectScreen
Briefly: SelectScreen LanthaScreen. The class given is binding. The note with it: read-out: % displacement. The procedure, abridged: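 NU5455 was profiled across the SelectScreen Broad panel of kinase activity and binding assays. Z'LYTE reactions such as CSF1R ran at apparent Km ATP, while the Adapta CAMK1 assay used ATP listed as 10. Values are given as percent.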

T1 sequence (Q9UKI8 whole entry): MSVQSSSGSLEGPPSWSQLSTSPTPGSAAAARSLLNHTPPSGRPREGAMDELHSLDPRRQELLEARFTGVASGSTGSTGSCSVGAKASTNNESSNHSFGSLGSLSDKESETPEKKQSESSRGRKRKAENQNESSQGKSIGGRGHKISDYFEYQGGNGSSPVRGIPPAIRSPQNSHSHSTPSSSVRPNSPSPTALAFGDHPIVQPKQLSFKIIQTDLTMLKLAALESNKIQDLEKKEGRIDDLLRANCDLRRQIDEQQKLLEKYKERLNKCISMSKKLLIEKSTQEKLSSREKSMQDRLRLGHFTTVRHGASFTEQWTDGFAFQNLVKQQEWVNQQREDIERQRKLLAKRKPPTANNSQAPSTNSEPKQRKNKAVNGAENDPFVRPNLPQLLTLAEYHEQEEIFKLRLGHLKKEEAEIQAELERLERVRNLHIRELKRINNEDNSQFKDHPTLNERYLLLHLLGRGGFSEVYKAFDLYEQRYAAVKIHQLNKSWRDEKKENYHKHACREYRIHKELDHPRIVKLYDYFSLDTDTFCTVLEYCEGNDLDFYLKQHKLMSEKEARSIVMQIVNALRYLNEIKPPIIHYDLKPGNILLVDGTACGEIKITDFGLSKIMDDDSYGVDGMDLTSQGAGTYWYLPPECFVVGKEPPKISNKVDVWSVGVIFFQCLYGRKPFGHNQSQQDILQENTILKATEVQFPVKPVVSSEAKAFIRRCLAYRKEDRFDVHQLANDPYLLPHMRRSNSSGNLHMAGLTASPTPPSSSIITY

Regarding `CN(C(=O)CN1CCOCC1)c1ccc2sc3c(-c4cccc5c(=O)cc(N6CC7CCC(C6)O7)oc45)cccc3c2c1` [NU5455], the inhibition at 1 µM is -0.8%.
